pEC50: −log10 of the molar value.
Columns and labels:
[1] = target: T1, human GPR 119 receptor (Homo sapiens, UniProt Q8TDV5); experiment: cAMP assay in stable cell line expressing recombinant human GPR 119 receptor; type: cell-based; details: intracellular cAMP, recombinant human GPR 119 cell line
T1 construct: expressed in transfected cells
T1 sequence (Q8TDV5 1-335): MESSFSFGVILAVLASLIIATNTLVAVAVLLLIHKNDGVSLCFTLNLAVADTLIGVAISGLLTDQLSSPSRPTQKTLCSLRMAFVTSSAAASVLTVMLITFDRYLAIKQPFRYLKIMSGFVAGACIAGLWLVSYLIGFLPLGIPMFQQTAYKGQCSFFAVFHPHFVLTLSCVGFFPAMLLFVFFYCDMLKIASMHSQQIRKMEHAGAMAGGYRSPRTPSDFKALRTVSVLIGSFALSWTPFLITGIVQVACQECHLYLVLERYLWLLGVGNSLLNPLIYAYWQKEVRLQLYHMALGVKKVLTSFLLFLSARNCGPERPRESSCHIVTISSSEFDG
From the text: A stable cell line expressing recombinant human GPR 119 receptor was established and used to investigate the efficacy of the compounds of the invention based on the intracellular levels of cyclic AMP (cAMP) using commercially available cAMP kits. Compounds of the invention produced a concentration dependent increase in cAMP level and EC50 values of representative compounds were provided in table 1 and table 2 respectively.

[2] = tested on: Sprague Dawley rats; experiment: Feed intake in Sprague Dawley rats; type: in vivo, rat; details: 25 mg/kg i.p., cumulative feed intake vs vehicle control
From the text: In Vivo Efficacy Studies: Feed Intake in Sprague Dawley Rats:
Sprague Dawley rats of 6-8 week age were be used for this experiment they were be kept for acclimatization in reversed light/dark cycle for 15 days. Animals will have free access to a standard chow diet and water during acclimatization period. After 15 days reversed light/dark cycle acclimatization animals were trained for fasting induced feed intake for 5 days till they show consistent feed intake. Grouping was done based on the monitored feed intake the training days. On treatment day each group of animals were dosed with test compound or vehicle by appropriate routes of administration (orally or intraperitoneally). Exactly 30 min. after treatment, measured amount of standard chow diet was provided and recorded as 0-min feed offered. Then subsequently 2, 4, 6 and 24 hour after 0-min, feed intake was measured and the cumulative feed intakes were calculated. The change in cumulative feed intake as compare to vehicle treated control at each time point was calculated for test compound and results were provided in table 2

CC(=NOc1ncnc(N2CCC(c3nc(C(C)C)no3)CC2)c1[N+](=O)[O-])c1cc2ccccc2o1 [Example 1, 1-(benzofuran-2-yl)ethanone O-6-(4-(3-isopropyl-1,2,4-oxadiazol-5-yl)piperidin-1-yl)-5-nitropyrimidin-4-yl oxime] was tested. Which “% activity at 1 μM” value [1] did it give?
The value was 62.46%.

And the pEC50 [1]?
The pEC50 was 6.10.

Which “% activity at 1 μM” value [1] does the source give for CC(=NOc1ncnc(N2CCC(c3nc(C(C)C)no3)CC2)c1[N+](=O)[O-])c1ccc(C)cc1 [Example 2, 1-p-tolylethanone O-6-(4-(3-isopropyl-1,2,4-oxadiazol-5-yl)piperidin-1-yl)-5-nitropyrimidin-4-yl oxime] here?
The value was 37.75%.

Which “% activity at 1 μM” value [1] does the source give for CC(=NOc1ncnc(N2CCC(c3nc(C(C)C)no3)CC2)c1C)c1ccc(S(C)(=O)=O)cc1 [Example 3, 1-(4-(methylsulfonyl)phenyl)ethanone O-6-(4-(3-isopropyl-1,2,4-oxadiazol-5-yl)piperidin-1-yl)-5-methylpyrimidin-4-yl oxime] here?
Its value is 73.40%.

CC(=NOc1ncnc(N2CCC(c3nc(C(C)C)no3)CC2)c1[N+](=O)[O-])c1ccc2c(c1)OCO2 [Example 4, 1-(benzo[d][1,3]dioxol-5-yl)ethanone O-6-(4-(3-isopropyl-1,2,4-oxadiazol-5-yl)piperidin-1-yl)-5-nitropyrimidin-4-yl oxime] was tested. Which “% reduction in food in take 2 hour” value [2] did it give?
Its value is 45.3%.

And the “% reduction in food in take 4 hour” value [2]?
The value was 29%.

And the “% reduction in food in take 6 hour” value [2]?
Its value is 14.1%.

And the “% reduction in food in take 24 hour” value [2]?
The value was 0%.

What about the “% activity at 1 μM” value [1] of the same molecule?
Its value is 47.28%.

What does the source list for CC(=NOc1ncnc(N2CCC(c3nc(C(C)C)no3)CC2)c1C)c1ccc2c(c1)OCO2 [Example 5, 1-(benzo[d][1,3]dioxol-5-yl)ethanone O-6-(4-(3-isopropyl-1,2,4-oxadiazol-5-yl)piperidin-1-yl)-5-methylpyrimidin-4-yl oxime]?
% reduction in food in take 2 hour [2]: 39%; % reduction in food in take 4 hour [2]: 40%; % reduction in food in take 6 hour [2]: 31%; % reduction in food in take 24 hour [2]: 8.2%; % activity at 1 μM [1]: 58.37%

Which results are given for COc1ccc(C(C)=NOc2ncnc(N3CCC(c4nc(C(C)C)no4)CC3)c2[N+](=O)[O-])cc1 [Example 7, 1-(4-methoxyphenyl)ethanone O-6-(4-(3-isopropyl-1,2,4-oxadiazol-5-yl)piperidin-1-yl)-5-nitropyrimidin-4-yl oxime]?
% reduction in food in take 2 hour [2]: 53.5%; % reduction in food in take 4 hour [2]: 42%; % reduction in food in take 6 hour [2]: 36%; % reduction in food in take 24 hour [2]: 12.9%; % activity at 1 μM [1]: 88.99%

Which results are given for CC(=NOc1ncnc(N2CCC(c3nc(C(C)C)no3)CC2)c1C)c1ccc(F)cc1 [Example 8, 1-(4-fluorophenyl)ethanone O-6-(4-(3-isopropyl-1,2,4-oxadiazol-5-yl)piperidin-1-yl)-5-methylpyrimidin-4-yl oxime]?
% reduction in food in take 2 hour [2]: 32%; % reduction in food in take 4 hour [2]: 17%; % reduction in food in take 6 hour [2]: 12%; % reduction in food in take 24 hour [2]: 4%; % activity at 1 μM [1]: 64.11%

With CC(=NOc1ncnc(N2CCC(c3nc(C(C)C)no3)CC2)c1C)c1cccnc1 [Example 12, 1-(pyridin-3-yl)ethanone O-6-(4-(3-isopropyl-1,2,4-oxadiazol-5-yl)piperidin-1-yl)-5-methylpyrimidin-4-yl oxime] as the molecule, how does the “% activity at 1 μM” value [1] read?
The value was 20.32%.

CC(=NOc1ncnc(N2CCC(c3nc(C(C)C)no3)CC2)c1[N+](=O)[O-])c1ccc(OC(F)(F)F)cc1 [Example 13, 1-(4-(trifluoromethoxy)phenyl)ethanone O-6-(4-(3-isopropyl-1,2,4-oxadiazol-5-yl)piperidin-1-yl)-5-nitropyrimidin-4-yl oxime] was tested. Which “% activity at 1 μM” value [1] did it give?
Its value is 93.76%.

What about the pEC50 [1] of the same molecule?
Its pEC50 is 6.62.

Which “% activity at 1 μM” value [1] does the source give for CC(=NOc1ncnc(N2CCC(c3nc(C(C)C)no3)CC2)c1C)c1ccc2c(c1)CCCC2 [Example 17, 1-(5,6,7,8-tetrahydronaphthalen-2-yl)ethanone O-6-(4-(3-isopropyl-1,2,4-oxadiazol-5-yl)piperidin-1-yl)-5-methylpyrimidin-4-yl oxime] here?
Its value is 29.24%.

With CC(=NOc1ncnc(N2CCC(c3nc(C(C)C)no3)CC2)c1[N+](=O)[O-])c1ccc2c(c1)CCCC2 [Example 18, 1-(5,6,7,8-tetrahydronaphthalen-2-yl)ethanone O-6-(4-(3-isopropyl-1,2,4-oxadiazol-5-yl)piperidin-1-yl)-5-nitropyrimidin-4-yl oxime] as the molecule, how does the “% activity at 1 μM” value [1] read?
The value was 31.37%.

CC(=NOc1ncnc(N2CCC(c3nc(C(C)C)no3)CC2)c1C)c1cc2ccccc2o1 [Example 19, 1-(benzofuran-2-yl)ethanone O-6-(4-(3-isopropyl-1,2,4-oxadiazol-5-yl)piperidin-1-yl)-5-methylpyrimidin-4-yl oxime] was tested. Which “% activity at 1 μM” value [1] did it give?
Its value is 40.68%.

For Cc1c(ON=C(c2ccccc2)c2ccccc2)ncnc1N1CCC(c2nc(C(C)C)no2)CC1 [Example 20, Benzophenone O-6-(4-(3-isopropyl-1,2,4-oxadiazol-5-yl)piperidin-1-yl)-5-methylpyrimidin-4-yl oxime], which “% activity at 1 μM” value [1] is on record?
The value was 24.55%.

For CC(C)c1noc(C2CCN(c3ncnc(ON=C(c4ccccc4)c4ccccc4)c3[N+](=O)[O-])CC2)n1 [Example 21, Benzophenone O-6-(4-(3-isopropyl-1,2,4-oxadiazol-5-yl)piperidin-1-yl)-5-nitropyrimidin-4-yl oxime], which “% activity at 1 μM” value [1] is on record?
The value was 19.43%.

For CC(=NOc1ncnc(N2CCC(c3nc(C(C)C)no3)CC2)c1C)c1ccc(-c2ccccc2)cc1 [Example 24, 1-(biphenyl-4-yl)ethanone O-6-(4-(3-isopropyl-1,2,4-oxadiazol-5-yl)piperidin-1-yl)-5-methylpyrimidin-4-yl oxime], which “% activity at 1 μM” value [1] is on record?
Its value is 8.7%.

How did the “% activity at 1 μM” value [1] turn out when CC(=NOc1ncnc(N2CCC(c3nc(C(C)C)no3)CC2)c1[N+](=O)[O-])c1ccc(-c2ccccc2)cc1 [Example 25, 1-(biphenyl-4-yl)ethanone O-6-(4-(3-isopropyl-1,2,4-oxadiazol-5-yl)piperidin-1-yl)-5-nitropyrimidin-4-yl oxime] was run?
Its value is 32.0%.

For CCCCC(=NOc1ncnc(N2CCC(c3nc(C(C)C)no3)CC2)c1[N+](=O)[O-])c1ccccc1 [Example 26, 1-phenylpentan-1-one O-6-(4-(3-isopropyl-1,2,4-oxadiazol-5-yl)piperidin-1-yl)-5-nitropyrimidin-4-yloxime], which “% activity at 1 μM” value [1] is on record?
The value was 10.2%.

With CC(=NOc1ncnc(N2CCC(c3nc(C(C)C)no3)CC2)c1[N+](=O)[O-])c1cccs1 [Example 28, 1-(thiophen-2-yl)ethanone O-6-(4-(3-isopropyl-1,2,4-oxadiazol-5-yl)piperidin-1-yl)-5-nitropyrimidin-4-yl oxime] as the molecule, how does the “% activity at 1 μM” value [1] read?
The value was 33.4%.

For Cc1c(ON=C(c2ccc(F)cc2)c2ccc(F)cc2)ncnc1N1CCC(c2nc(C(C)C)no2)CC1 [Example 29, bis(4-fluorophenyl)methanone O-6-(4-(3-isopropyl-1,2,4-oxadiazol-5-yl)piperidin-1-yl)-5-methylpyrimidin-4-yl oxime], which “% activity at 1 μM” value [1] is on record?
Its value is 13.7%.

With CCCCC(=NOc1ncnc(N2CCC(c3nc(C(C)C)no3)CC2)c1C)c1ccccc1 [Example 30, 1-phenylpentan-1-one O-6-(4-(3-isopropyl-1,2,4-oxadiazol-5-yl)piperidin-1-yl)-5-methylpyrimidin-4-yl oxime] as the molecule, how does the “% activity at 1 μM” value [1] read?
Its value is 24.65%.

Which “% activity at 1 μM” value [1] does the source give for CC(C)c1noc(C2CCN(c3ncnc(ON=C(c4ccc(F)cc4)c4ccc(F)cc4)c3[N+](=O)[O-])CC2)n1 [Example 31, bis(4-fluorophenyl)methanone O-6-(4-(3-isopropyl-1,2,4-oxadiazol-5-yl)piperidin-1-yl)-5-nitropyrimidin-4-yl oxime] here?
Its value is 12.18%.

Which “% activity at 1 μM” value [1] does the source give for CC(=NOc1ncnc(N2CCC(c3nc(C(C)C)no3)CC2)c1C)c1ccccc1 [Example 32, Acetophenone O-6-(4-(3-isopropyl-1,2,4-oxadiazol-5-yl)piperidin-1-yl)-5-methylpyrimidin-4-yloxime] here?
The value was 32.16%.

How did the “% activity at 1 μM” value [1] turn out when CC(=NOc1ncnc(N2CCC(c3nc(C(C)C)no3)CC2)c1[N+](=O)[O-])c1ccccc1 [Example 33, Acetophenone O-6-(4-(3-isopropyl-1,2,4-oxadiazol-5-yl)piperidin-1-yl)-5-nitropyrimidin-4-yl oxime] was run?
Its value is 59.34%.
